One assay relates to Caco-2. In words: Antiproliferative activity against human Caco2 cells assessed as reduction in cell viability after 72 hrs by MTT assay. Format: functional, cell-based. The note with it: Caco-2, 72 h.
The subject of assay [1] is HeLa. In words: Antiproliferative activity against human HeLa cells assessed as reduction in cell viability after 72 hrs by MTT assay. Format: functional, cell-based.
Assay [2] can be described thus: Cytotoxicity against dog MDCK1 cells assessed as reduction in cell viability after 72 hrs by MTT assay. Format: cell-based. Conditions: Canis lupus familiaris, MDCK1, 72 h.
A further assay has as its system K562. In words: Antiproliferative activity against human K562 cells assessed as reduction in cell viability after 72 hrs by MTT assay. Format: functional, cell-based. The note with it: K562, 72 h. In general terms: Tetrazolium assays rely on reduction of a dye to a coloured formazan, in cell work by metabolically active cells.
Assay [3] is described as follows: Antiproliferative activity against human SMCC7721 cells assessed as reduction in cell viability after 48 hrs by MTT assay. Type of assay: functional, cell-based.
The test system of another assay is SW480. In words: Antiproliferative activity against human SW480 cells assessed as reduction in cell viability after 48 hrs by MTT assay. Format: functional, cell-based. The note with it: SW480, 48 h.
The test system of a further assay is HL-60. In words: Antiproliferative activity against human HL60 cells assessed as reduction in cell viability after 48 hrs by MTT assay. Format: functional, cell-based. Conditions: HL-60, 48 h.
The subject of assay [4] is A549. In words: Antiproliferative activity against human A549 cells assessed as reduction in cell viability after 48 hrs by MTT assay. Type of assay: functional, cell-based. The note with it: A549, 48 h.
Assay [5] has as its system HeLa. Briefly: Antiproliferative activity against human HeLa cells assessed as reduction in cell viability after 48 hrs by MTT assay. Format: functional, cell-based.
Assay [6] relates to MDA-MB-231. Briefly: Antiproliferative activity against human MDA-MB-231 cells assessed as reduction in cell viability after 48 hrs by MTT assay. Format: functional, cell-based. Conditions: MDA-MB-231, 48 h.
For assay [7], the system named is MCF7. Briefly: Antiproliferative activity against human MCF7 cells assessed as reduction in cell viability after 48 hrs by MTT assay. Conditions: MCF7, 48 h. Format: functional, cell-based.
The next assay concerns HCT-116. In words: Antiproliferative activity against human HCT116 cells assessed as reduction in cell viability after 48 hrs by MTT assay. Format: functional, cell-based. Conditions: HCT-116, 48 h.
A further assay relates to HEK293. In words: Cytotoxicity against HEK293 cells assessed as reduction in cell viability after 48 hrs by MTT assay. Conditions: Homo sapiens, HEK293, 48 h. Type of assay: cell-based.
For assay [8], the system named is DU-145. In words: Antiproliferative activity against human DU145 cells assessed as reduction in cell viability after 48 hrs by MTT assay. Type of assay: functional, cell-based. The note with it: DU-145, 48 h.
The subject of assay [9] is A549. In words: cells. Format: functional, cell-based. Conditions: Homo sapiens.
Description: Antiproliferative activity against human A549 cells by MTT assay
Assay [10] relates to HT-29. In words: Antiproliferative activity against human HT-29 cells by MTT assay. Type of assay: functional, cell-based.
Assay [11] concerns MCF7. Briefly: cells. Format: functional, cell-based. Conditions: Homo sapiens.
Description: Antiproliferative activity against human MCF7 cells by MTT assay
For another assay, the system named is MCF-10A. In words: Cytotoxicity against human MCF10A cells by MTT assay. Type of assay: cell-based.
The next assay has as its system MV4-11. In words: Antiproliferative activity against human MV4-11 cells by MTT assay. Format: functional, cell-based.
Assay [12] concerns DU-145. In words: Antiproliferative activity against human DU145 cells by MTT assay. Type of assay: functional, cell-based.
The test system of another assay is C2C12. In words: Cytotoxicity against mouse C2C12 cells assessed as reduction in cell viability after 48 hrs by MTT assay. Conditions: C2C12, 48 h. Type of assay: cell-based.
Assay [13] concerns HT-29. In words: Antiproliferative activity against human HT-29 cells assessed as reduction in cell viability after 48 hrs by MTT assay. Type of assay: functional, cell-based. Conditions: HT-29, 48 h.
For assay [14], the system named is MCF7. Briefly: Antiproliferative activity against human MCF7 cells assessed as reduction in cell viability after 72 hrs by MTT assay. Format: functional, cell-based. Conditions: MCF7, 72 h.
In assay [15] the test system is A549. In words: Antiproliferative activity against human A549 cells assessed as reduction in cell viability after 72 hrs by MTT assay. Format: functional, cell-based. The note with it: A549, 72 h.
The subject of assay [16] is HepG2. Briefly: Antiproliferative activity against human HepG2 cells assessed as reduction in cell viability after 72 hrs by MTT assay. Format: functional, cell-based. The note with it: HepG2, 72 h.
The test system of another assay is SK-BR-3. In words: Antiproliferative activity against human SKBR3 cells assessed as reduction in cell viability after 72 hrs by MTT assay. Format: functional, cell-based. Conditions: SK-BR-3, 72 h.
For the next assay, the system named is KG-1a. Briefly: Antiproliferative activity against human KG1a cells assessed as reduction in cell viability after 72 hrs by MTT assay. Type of assay: functional, cell-based.
Another assay has as its system SUM-159-PT. In words: Antiproliferative activity against human SUM159 cells assessed as reduction in cell viability after 72 hrs by MTT assay. Type of assay: functional, cell-based.
Assay [17] relates to HeLa. In words: Antiproliferative activity against human HeLa cells by SRB assay. Format: functional, cell-based. (Sulforhodamine B stains cellular protein and so reports cell mass.)
The test system of assay [18] is DU-145. In words: Antiproliferative activity against human DU145 cells by SRB assay. Type of assay: functional, cell-based.
In assay [19] the test system is MDA-MB-231. In words: Antiproliferative activity against human MDA-MB-231 cells by SRB assay. Format: functional.
The test system of assay [20] is HepG2. In words: Antiproliferative activity against human HepG2 cells by SRB assay. Type of assay: functional, cell-based.

The results in this text go back to ChEMBL document CHEMBL4342418, “1,2,3-Triazole-containing hybrids as potential anticancer agents: Current developments, action mechanisms and structure-activity relationships” (Eur J Med Chem, 2019).

As a reminder, the IC50 is the concentration needed to halve the response being measured. As to `O=c1cc(Cn2cc(-c3ccccc3)nn2)c2cc(O)c(O)cc2o1`, the IC50 in the assay with Caco-2 lay in the range of 9.7 to 81.9 µM; in the assay on HeLa [1] it was 9.7 to 81.9 µM; in [2], 36.7 to 46 µM; in the assay on K562 it was 9.7 to 81.9 µM.
Regarding `COc1cc([C@@H]2c3cc4c(cc3[C@H](n3cc(COCC(COCc5cn([C@H]6c7cc8c(cc7[C@@H](c7cc(OC)c(O)c(OC)c7)[C@H]7C(=O)OC[C@@H]76)OCO8)nn5)O[C@@H]5O[C@H](COC(C)=O)[C@@H](OC(C)=O)[C@H](OC(C)=O)[C@H]5OC(C)=O)nn3)[C@H]3COC(=O)[C@H]23)OCO4)cc(OC)c1O` (some centres undefined), the IC50 (in assay [3]; in the assay on SW480; with HL-60; in the assay with A549 [4]) was 0.43 to 30.5 µM each time.
As for `N#CC1=C(N)Oc2ccccc2C12C(=O)N(Cc1cn(CCCCBr)nn1)c1ccccc12` (centres undefined), the IC50 with HeLa [5], in the assay on MDA-MB-231 [6] and in the assay on MCF7 [7] was 4.8 to 9.21 µM throughout.
Consider `CCCC(=O)OC[C@H]1O[C@@H](OC(COCc2cn([C@H]3c4cc5c(cc4[C@@H](c4cc(OC)c(O)c(OC)c4)[C@H]4C(=O)OC[C@@H]43)OCO5)nn2)COCc2cn([C@H]3c4cc5c(cc4[C@@H](c4cc(OC)c(O)c(OC)c4)[C@H]4C(=O)OC[C@@H]43)OCO5)nn2)[C@H](OC(=O)CCC)[C@@H](OC(=O)CCC)[C@@H]1OC(=O)CCC` (some centres undefined), for which the IC50 (in assay [3]; with SW480; with HL-60; with A549 [4]) was 0.43 to 30.5 µM in each case.
In the case of `O=C(c1cn(Cc2ccc(-c3ccc(Cl)cc3)cc2)nn1)c1c(-c2ccccc2)nc2ccccn12`, the IC50 is 0.51 to 3.98 µM in the assay on HCT-116; 0.51 to 3.98 µM in the assay on MDA-MB-231 [6]; 91.2 µM in the assay with HEK293; 0.51 to 3.98 µM in the assay with DU-145 [8]; 0.51 to 3.98 µM in the assay with A549 [4].
`C=CCC1CN2CCC1CC2[C@H](O)c1ccnc2ccc(-c3cn(-c4ccccc4)nn3)cc12` (some centres undefined): the IC50 in the assay with A549 [9], in the assay with HT-29 [10], in the assay with MCF7 [11], in the assay with MCF-10A, with MV4-11 and in the assay with DU-145 [12] was 0.53 to 14.6 µM in each case.
`COc1ccccc1-c1cn(Cc2cc(=O)oc3cc(O)c(O)cc23)nn1`: the IC50 with Caco-2 fell in the range of 9.7 to 81.9 µM; in the assay on HeLa [1] it was 9.7 to 81.9 µM; in assay [2], 36.7 to 46 µM; in the assay on K562, 9.7 to 81.9 µM.
For `C=CCC1CN2CCC1CC2[C@H](O)c1cc(-c2cn(-c3ccc(O)cc3)nn2)nc2ccc(OC)cc12` (some centres undefined), the 50% inhibitory concentration (IC50) with A549 [9], in the assay with HT-29 [10], in the assay on MCF7 [11], in the assay with MCF-10A, with MV4-11 and with DU-145 [12] was 0.53 to 14.6 µM in each case.
Regarding `O=C(Nc1cccc(-n2cc(Oc3ccc(-c4cc(-c5ccc(Oc6cn(-c7cccc(NC(=O)[C@@H]8CCCN8)c7)nn6)cc5)cc(-c5ccc(Oc6cn(-c7cccc(NC(=O)[C@@H]8CCCN8)c7)nn6)cc5)c4)cc3)nn2)c1)[C@@H]1CCCN1`, the IC50 with C2C12 was more than 40 µM; in the assay with HCT-116, 7.1 to 13.4 µM; in the assay with MCF7 [7], 7.1 to 13.4 µM.
Take `COc1ccc(S(=O)(=O)Nc2cccnc2Nc2ccc(O)cc2)cc1` [ABT-751]: the IC50 in the assay with HT-29 [13], in the assay with HEK293, in the assay with DU-145 [8] and in the assay with A549 [4] was 1.31 to 1.62 µM each time.
For `COc1cc2c(Oc3ccc(NC(=O)C4(C(=O)Nc5ccc(F)cc5)CC4)cc3F)ccnc2cc1OCCCN1CCOCC1` [FORETINIB], the IC50 in the assay with MCF7 [14], in the assay with A549 [15] and in the assay with HepG2 [16] was 2.4 to 4.7 µM each time.
On to `CS(=O)(=O)CCNCc1ccc(-c2ccc3ncnc(Nc4ccc(OCc5cccc(F)c5)c(Cl)c4)c3c2)o1` [LAPATINIB], for which the IC50 in the assay with SK-BR-3, in the assay with KG-1a and with SUM-159-PT was 9.76 to 20.1 µM in each case.
One may read the GI50 as the concentration giving 50% growth inhibition. On to `COC(=O)Nc1nc2cc(C(=O)c3cccs3)ccc2[nH]1` [NOCODAZOLE], for which the IC50 in the assay on HT-29 [13] lay in the range of 2.2 to 3.1 µM; in the assay on HCT-116, 1.38 to 1.65 µM; with MDA-MB-231 [6], 1.38 to 1.65 µM; in the assay on HEK293, 2.2 to 3.1 µM; in the assay on DU-145 [8], 1.38 to 3.1 µM; with A549 [4], 1.38 to 3.1 µM. The concentration for 50% growth inhibition (GI50) with HeLa [17], with DU-145 [18], with MDA-MB-231 [19] and in the assay with HepG2 [20] was 0.011 to 0.034 µM throughout.
